In publication PMC2849849 (Neuropharmacology, 2010):
Where “and” joins values, the source holds several entries; their conditions need not be identical. Equal entries are not always repeated. Entries after “also recorded” stand apart in the source; their conditions may differ. Structures can show the parent of a compound that is named as a salt. Where two headings read alike, the source gives them in different places.

Experiments:
α4L9'A knock-in mice [1] = assay: Hypothermia in α4L9'A knock-in mice; format: in vivo, mouse; details: for Physiological effect α4L9'Aβ2*: ip
α3β4*-nAChR = α3β4*-nAChR (Mus musculus, UniProt Q8R493+Q8R4G9); assay: [3H]-ACh release from IPN synaptosomes; format: biochemical; details: for Functional character at α3β4*: [3H]-ACh release from IPN synaptosomes
α6β2*-nAChR [2] = target: T1, α6β2*-nAChR (Mus musculus, UniProt Q9ERK7+Q9R0W9); details: ref Salminen et al, 2004; cited from earlier work
α4β2*-nAChR [3] = target: T2, α4β2*-nAChR (Mus musculus, UniProt O70174+Q9ERK7); details: ref Salminen et al, 2004; cited from earlier work
α6L9'S transgenic mice [4] = details: ref Drenan et al, 2008, cited from earlier work; for Physiological effect α6L9'Sβ2*: locomotor, ip, dose in parentheses mg/kg
α4L9'A knock-in mice [5] = details: ref Tapper et al, 2007, cited from earlier work; for Physiological effect α4L9'Aβ2*: ip, dose in parentheses mg/kg
α6L9'S mice = details: 0.1 mg/kg; unpublished data
α4β2*-nAChR [6] = target: T2, α4β2*-nAChR; assay: α-CtxMII-resistant [3H]-dopamine release from striatal synaptosomes; format: biochemical
α6L9'S transgenic mice [7] = assay: Locomotor activity in α6L9'S transgenic mice; format: in vivo, mouse; details: for Physiological effect α6L9'Sβ2*: locomotor, ip, dose in parentheses mg/kg
α6β2*-nAChR [8] = target: T1, α6β2*-nAChR; assay: α-CtxMII-sensitive [3H]-dopamine release from striatal synaptosomes; format: biochemical
α7-nAChR = α7-nAChR (Mus musculus, UniProt P49582); assay: biochemical; format: binding
hα7-nAChR = hα7-nAChR (Homo sapiens, UniProt P36544); assay: cell-based; format: cell-based; details: for Emax: GH4-C1, read-out: Efficacy α7; for EC50: read-out: EC50 α7
[9] = dose in parentheses mg/kg, block = block of low dose nicotine
[10] = EC50 α4β2* (1st number, [3H]DA release assay), activation, curve fit
[11] = EC50 α6β2*, activation, α-CtxMII-sensitive DA release
[12] = read-out: Ki α4β2* (1st number, [3H]DA release assay, marked #)
[13] = Ki α4β2* (1st number, [3H]DA release assay, marked #)
[14] = EC50 α3β4*, activation, [3H]ACh release

T2 sequence (O70174 31-629): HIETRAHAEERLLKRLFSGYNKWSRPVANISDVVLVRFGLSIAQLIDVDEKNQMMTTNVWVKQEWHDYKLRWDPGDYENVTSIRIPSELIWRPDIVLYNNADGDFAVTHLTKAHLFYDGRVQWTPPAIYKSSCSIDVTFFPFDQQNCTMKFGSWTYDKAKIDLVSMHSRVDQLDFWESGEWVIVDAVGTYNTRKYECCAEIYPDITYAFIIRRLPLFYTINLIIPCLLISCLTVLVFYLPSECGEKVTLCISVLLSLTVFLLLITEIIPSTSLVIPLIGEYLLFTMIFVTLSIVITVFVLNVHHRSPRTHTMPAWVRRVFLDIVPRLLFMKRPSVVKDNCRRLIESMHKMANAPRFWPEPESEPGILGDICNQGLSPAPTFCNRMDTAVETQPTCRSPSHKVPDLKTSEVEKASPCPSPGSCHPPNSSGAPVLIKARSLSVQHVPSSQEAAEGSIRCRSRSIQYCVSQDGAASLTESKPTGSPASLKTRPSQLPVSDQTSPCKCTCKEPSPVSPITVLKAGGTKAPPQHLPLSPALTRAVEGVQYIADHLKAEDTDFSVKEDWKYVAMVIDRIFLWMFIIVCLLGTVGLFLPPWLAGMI
T2 sequence (Q9ERK7 26-501): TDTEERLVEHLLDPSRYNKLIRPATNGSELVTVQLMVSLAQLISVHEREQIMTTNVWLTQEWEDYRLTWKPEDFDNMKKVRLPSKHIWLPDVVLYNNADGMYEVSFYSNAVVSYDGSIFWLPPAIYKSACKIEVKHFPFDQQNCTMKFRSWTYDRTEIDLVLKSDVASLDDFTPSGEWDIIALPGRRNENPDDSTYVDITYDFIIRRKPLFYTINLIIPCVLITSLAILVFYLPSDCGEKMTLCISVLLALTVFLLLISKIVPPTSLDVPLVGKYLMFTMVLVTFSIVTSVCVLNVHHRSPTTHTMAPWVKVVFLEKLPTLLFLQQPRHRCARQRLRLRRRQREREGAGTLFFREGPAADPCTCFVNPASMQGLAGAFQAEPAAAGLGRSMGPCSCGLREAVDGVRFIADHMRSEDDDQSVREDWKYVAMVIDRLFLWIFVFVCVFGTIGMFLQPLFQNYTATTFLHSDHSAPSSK
Sequence of α7-nAChR (P49582 23-502): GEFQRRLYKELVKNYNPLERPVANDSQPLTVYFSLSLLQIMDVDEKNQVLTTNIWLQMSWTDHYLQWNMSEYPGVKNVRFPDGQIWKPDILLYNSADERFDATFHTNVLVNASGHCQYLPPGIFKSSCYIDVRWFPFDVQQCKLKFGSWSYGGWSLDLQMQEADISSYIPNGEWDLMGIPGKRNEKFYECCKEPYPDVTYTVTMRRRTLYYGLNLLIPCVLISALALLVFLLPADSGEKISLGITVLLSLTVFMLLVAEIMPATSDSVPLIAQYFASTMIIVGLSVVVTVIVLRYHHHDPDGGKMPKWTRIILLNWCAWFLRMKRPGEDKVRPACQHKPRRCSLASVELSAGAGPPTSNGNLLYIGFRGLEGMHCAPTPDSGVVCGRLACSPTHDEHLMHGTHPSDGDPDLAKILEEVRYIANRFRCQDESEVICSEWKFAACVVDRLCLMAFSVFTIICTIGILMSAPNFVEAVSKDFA
Sequence of α3β4*-nAChR (Q8R4G9 26-499): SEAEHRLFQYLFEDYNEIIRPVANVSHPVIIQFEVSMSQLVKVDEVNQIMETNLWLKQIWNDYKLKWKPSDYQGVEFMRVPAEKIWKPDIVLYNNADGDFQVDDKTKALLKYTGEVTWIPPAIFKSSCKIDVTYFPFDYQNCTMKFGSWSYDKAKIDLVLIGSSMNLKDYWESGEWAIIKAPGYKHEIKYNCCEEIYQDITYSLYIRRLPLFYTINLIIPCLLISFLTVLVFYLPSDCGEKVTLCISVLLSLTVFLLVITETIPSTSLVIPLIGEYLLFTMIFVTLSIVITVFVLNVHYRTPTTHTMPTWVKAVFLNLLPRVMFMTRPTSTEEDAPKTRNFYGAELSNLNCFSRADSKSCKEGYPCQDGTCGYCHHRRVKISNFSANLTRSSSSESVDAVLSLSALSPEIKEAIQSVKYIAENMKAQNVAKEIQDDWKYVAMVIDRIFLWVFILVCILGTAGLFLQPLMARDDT
Sequence of α3β4*-nAChR (Q8R493 21-495): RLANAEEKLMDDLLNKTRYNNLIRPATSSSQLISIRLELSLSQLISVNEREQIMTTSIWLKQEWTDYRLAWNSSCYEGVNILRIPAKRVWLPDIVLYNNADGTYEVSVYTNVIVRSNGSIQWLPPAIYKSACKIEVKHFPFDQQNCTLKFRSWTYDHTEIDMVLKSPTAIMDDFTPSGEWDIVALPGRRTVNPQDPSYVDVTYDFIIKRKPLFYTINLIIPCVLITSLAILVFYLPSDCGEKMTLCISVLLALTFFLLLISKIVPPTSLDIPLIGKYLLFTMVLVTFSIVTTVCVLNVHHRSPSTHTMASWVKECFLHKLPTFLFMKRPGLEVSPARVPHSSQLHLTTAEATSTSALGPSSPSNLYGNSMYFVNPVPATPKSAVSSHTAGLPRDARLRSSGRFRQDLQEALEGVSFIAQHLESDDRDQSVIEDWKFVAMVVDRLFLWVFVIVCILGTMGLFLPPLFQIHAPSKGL
T1 sequence (Q9R0W9 31-494): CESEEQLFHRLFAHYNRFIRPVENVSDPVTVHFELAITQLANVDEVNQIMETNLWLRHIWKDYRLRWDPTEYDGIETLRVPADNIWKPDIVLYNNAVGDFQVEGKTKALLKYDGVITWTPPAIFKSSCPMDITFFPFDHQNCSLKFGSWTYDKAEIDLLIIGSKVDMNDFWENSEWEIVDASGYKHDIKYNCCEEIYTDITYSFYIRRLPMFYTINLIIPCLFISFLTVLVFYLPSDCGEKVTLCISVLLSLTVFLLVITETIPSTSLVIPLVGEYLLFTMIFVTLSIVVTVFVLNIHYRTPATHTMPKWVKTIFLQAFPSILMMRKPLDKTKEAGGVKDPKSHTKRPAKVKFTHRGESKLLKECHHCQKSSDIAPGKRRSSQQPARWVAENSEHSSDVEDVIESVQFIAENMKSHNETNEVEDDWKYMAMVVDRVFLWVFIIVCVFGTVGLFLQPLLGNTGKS
T1 sequence (Q9ERK7 26-501): as the sequence (Q9ERK7 26-501) above
T1 sequence (Q8BMN3 31-464 partner): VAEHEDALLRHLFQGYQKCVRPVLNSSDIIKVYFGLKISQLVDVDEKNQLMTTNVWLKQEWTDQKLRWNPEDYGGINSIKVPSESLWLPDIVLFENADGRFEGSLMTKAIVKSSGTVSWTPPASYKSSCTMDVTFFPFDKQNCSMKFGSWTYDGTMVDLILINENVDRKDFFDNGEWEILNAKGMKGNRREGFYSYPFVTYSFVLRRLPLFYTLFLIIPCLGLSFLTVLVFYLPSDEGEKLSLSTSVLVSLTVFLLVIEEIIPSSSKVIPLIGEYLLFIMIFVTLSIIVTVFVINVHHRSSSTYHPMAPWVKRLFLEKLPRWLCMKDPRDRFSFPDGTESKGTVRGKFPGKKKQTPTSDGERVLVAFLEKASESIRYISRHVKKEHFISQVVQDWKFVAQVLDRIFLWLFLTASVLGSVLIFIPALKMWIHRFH
Sequence of hα7-nAChR (P36544 23-502): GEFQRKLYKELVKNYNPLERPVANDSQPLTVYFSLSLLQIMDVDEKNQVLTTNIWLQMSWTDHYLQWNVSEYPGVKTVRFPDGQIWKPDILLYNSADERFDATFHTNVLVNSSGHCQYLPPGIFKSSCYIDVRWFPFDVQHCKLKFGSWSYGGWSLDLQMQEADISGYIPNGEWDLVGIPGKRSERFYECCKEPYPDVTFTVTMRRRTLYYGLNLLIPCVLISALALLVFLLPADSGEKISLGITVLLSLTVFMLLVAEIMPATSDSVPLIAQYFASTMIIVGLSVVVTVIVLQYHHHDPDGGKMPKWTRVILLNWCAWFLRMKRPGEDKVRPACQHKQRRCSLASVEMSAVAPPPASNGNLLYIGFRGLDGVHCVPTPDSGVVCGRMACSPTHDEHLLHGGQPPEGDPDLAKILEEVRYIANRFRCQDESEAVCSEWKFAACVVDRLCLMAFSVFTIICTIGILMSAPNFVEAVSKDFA

c1cncc(CC2CC3CCN2CC3)c1 (centres unmarked) [Compound 5, 2-(pyridin-3-ylmethyl)quinuclidine]
Physiological effect α4L9'Aβ2* (α4L9'A knock-in mice [1]; mouse, in vivo): did not have intrinsic activity, nor did they block the effect of nicotine; also recorded: no effect
Functional character at α3β4* (α3β4*-nAChR): full or nearly full agonists

O=c1cccc2n1C[C@@H]1CNC[C@H]2C1 [cytisine]
Efficacy at α6β2* (α6β2*-nAChR [2]): 71%
Efficacy at α4β2*-nAChRs (α4β2*-nAChR [3]): 37%

CN1CCC[C@H]1c1cccnc1 [Nicotine, (-)-nicotine tartrate]
Locomotor activation, % of saline activity in α6L9'S mice (α6L9'S transgenic mice [4]; 0.15 mg/kg ip): ~350%
Physiological effect α6L9'Sβ2* (α6L9'S transgenic mice [4]): activation (0.1) ^2
Physiological effect α6L9'Sβ2* (α6L9'S transgenic mice [4]; listed as nicotine): locomotor hyperactivity
Temperature decrease in α4L9'A mice (α4L9'A knock-in mice [5]; 0.03 mg/kg): 3 °C
Physiological effect α4L9'Aβ2* (α4L9'A knock-in mice [5]): hypothermia (0.01) ^1
Physiological effect α4L9'Aβ2* (α4L9'A knock-in mice [5]; listed as nicotine): hypothermia
Temperature decrease in α6L9'S mice (α6L9'S mice): < 1 °C

c1cncc(C2C3CCN2CC3)c1 (centres unmarked) [Compound 2, 7-(pyridin-3-yl)-1-azabicyclo[2.2.1]heptane]
Physiological effect α4L9'Aβ2* (α4L9'A knock-in mice [1]; [9]): elicited responses; also recorded: hypothermia (0.03)
EC50 (α4β2*-nAChR [6]; [10]): 1040 ± 280 nM
Physiological effect α6L9'Sβ2* (α6L9'S transgenic mice [7]): elicited responses; also recorded: locomotor activation; also recorded: activation (0.1)
EC50 (α6β2*-nAChR [8]; [11]): 50 ± 23 nM
Functional character at α6β2* (α6β2*-nAChR [8]; α-CtxMII-sensitive DA release): full agonist
EC50 (α3β4*-nAChR): 4200 ± 500 nM
Functional character at α3β4* (α3β4*-nAChR): full or nearly full agonists
Ki (α7-nAChR): 32.9 ± 1.3 nM
Functional character at α7 (hα7-nAChR): full agonist
Emax (hα7-nAChR): 108%

c1cncc(C2CC3CCN2CC3)c1 (racemic) [Compound 1, (±)-2-(-3-pyridinyl)-1-azabicyclo[2.2.2]octane]
Temperature drop in α4L9'A mice (α4L9'A knock-in mice [1]; 0.03 mg/kg i.p.): ~8 °
Physiological effect α4L9'Aβ2* (α4L9'A knock-in mice [1]; mouse, in vivo): hypothermia (0.03)
Physiological effect α6L9'Sβ2* (α6L9'S transgenic mice [4]): locomotor activation; also recorded: activation (0.01) ^2
Increase in activity over saline in α6L9'S mice (α6L9'S transgenic mice [7]; 0.01 mg/kg i.p.): ~290%

c1ccc(-c2cncc(C3CC4CCN3CC4)c2)cc1 [Compound 6, (4S)-2-(5-phenylpyridin-3-yl)quinuclidine]
Efficacy α4β2* (first number, [3H]DA release) (α4β2*-nAChR [6]): -94 ± 2%
Ki (α4β2*-nAChR [6]; [12]): 230 nM
Efficacy α6β2* (α6β2*-nAChR [8]): -100 ± 19%
Ki (α6β2*-nAChR [8]; read-out: Ki α6β2* (marked #)): 1780 ± 1740 nM
Efficacy α3β4* (α3β4*-nAChR): -100 ± 7%
Functional character at α3β4* (α3β4*-nAChR): full antagonists
Ki (α3β4*-nAChR; read-out: Ki α3β4* (marked #)): 660 ± 170 nM
Decrease in α7 binding affinity relative to Compound 1 (α7-nAChR): approximately 50 fold
Efficacy α7 (hα7-nAChR): 18 ± 6%
EC50 (hα7-nAChR; peak current, GH4C1 cells): 29000 ± 5400 nM

CNC(C)C/C=C/c1cncc(C#Cc2ccccc2)c1 (centres unmarked) [Compound 9, (E)-N-methyl-5-(5-(phenylethynyl)pyridin-3-yl)pent-4-en-2-amine]
Physiological effect α4L9'Aβ2* (α4L9'A knock-in mice [1]; mouse, in vivo): did not have intrinsic activity, nor did they block the effect of nicotine; also recorded: no effect
Ki (α4β2*-nAChR [6]; [13]): 3900 nM
Inhibition at α6β2* (partial antagonism) (α6β2*-nAChR [8]): ~50%
Ki (α6β2*-nAChR [8]): 4100 ± 83 nM
Ki (α3β4*-nAChR): 14000 ± 300 nM
Functional character at α3β4* (α3β4*-nAChR): full antagonists
Ki (α7-nAChR): 30700 ± 4100 nM
Efficacy α7 (hα7-nAChR): naa
EC50 α7 (hα7-nAChR; peak current, GH4C1 cells): naa

c1cncc(C2CCC3CCN2CC3)c1 (centres unmarked) [Compound 3, 2-(pyridine-3-yl)-1-azabicyclo[3.2.2]nonane]
Physiological effect α4L9'Aβ2* (α4L9'A knock-in mice [1]; mouse, in vivo): blocked the effects of 0.1 mg/kg nicotine; also recorded: block (0.002)
Ki (α4β2*-nAChR [6]; [13]): 14 nM
Ki (α6β2*-nAChR [8]): 52 ± 22 nM
EC50 (α3β4*-nAChR; [14]): 2200 ± 300 nM
Functional character at α3β4* (α3β4*-nAChR): full or nearly full agonists
Ki (α7-nAChR): 2.2 ± 0.5 nM
Functional character at α7 (hα7-nAChR): full agonists
Emax (hα7-nAChR): 106%

N#Cc1ccc(Oc2cncc(C3CC4CCN3CC4)c2)cc1 (centres unmarked) [Compound 7, 4-(5-(quinuclidin-2-yl)pyridin-3-yloxy)benzonitrile]
Physiological effect α4L9'Aβ2* (α4L9'A knock-in mice [1]; mouse, in vivo): blocked the effects of 0.1 mg/kg nicotine; also recorded: block (0.01)
Ki (α4β2*-nAChR [6]; [13]): 66 nM
Physiological effect α6L9'Sβ2* (α6L9'S transgenic mice [7]): block (0.1)
Antagonist potency at α6β2* relative to Compound 6 (times more potent) (α6β2*-nAChR [8]): 40 times
Ki (α6β2*-nAChR [8]): 48 ± 3 nM
Ki (α3β4*-nAChR): 7000 ± 2000 nM
Functional character at α3β4* (α3β4*-nAChR): full or nearly full agonists
Ki (α7-nAChR): 23.4 ± 7.9 nM

CNCC/C=C/c1cccnc1 [Compound 8, (E)-N-methyl-4-(3-pyridinyl)-3-butene-1-amine]
Physiological effect α4L9'Aβ2* (α4L9'A knock-in mice [1]; mouse, in vivo): elicited responses; also recorded: hypothermia (0.2)
Physiological effect α6L9'Sβ2* (α6L9'S transgenic mice [4]): elicited responses; also recorded: elicit a response; also recorded: activation (1.0) ^2
EC50 (α4β2*-nAChR [6]): 14800 ± 10100 nM
Functional character at α6β2* (α6β2*-nAChR [8]; α-CtxMII-sensitive DA release): no measurable activity
Functional character at α3β4* (α3β4*-nAChR): partial agonists
Ki (α7-nAChR): 3070 ± 800 nM
Emax (hα7-nAChR): 17 ± 7%

c1cncc(C2C3CC4CC(C3)CN2C4)c1 (centres unmarked) [Compound 4, 1-aza-2-(3-pyridinyl)-tricyclo[3.3.1.13,7]decane]
Physiological effect α4L9'Aβ2* (α4L9'A knock-in mice [1]; mouse, in vivo): blocked the effects of 0.1 mg/kg nicotine; also recorded: block (0.01)
Ki (α4β2*-nAChR [6]; [13]): 78 nM
Ki (α6β2*-nAChR [8]): 570 ± 299 nM
EC50 (α3β4*-nAChR; EC50 α3β4* [3H]-ACh release): 8500 nM
EC50 (α3β4*-nAChR; [14]): 34000 ± 8000 nM
Functional character at α3β4* (α3β4*-nAChR): full or nearly full agonists
Ki (α7-nAChR): 64.5 ± 5.5 nM

2-((5-chloropyridin-3-yloxy)methyl)quinuclidine [Compound 11]
Physiological effect α4L9'Aβ2* (α4L9'A knock-in mice [1]; mouse, in vivo): did not have intrinsic activity, nor did they block the effect of nicotine; also recorded: inconclusive
Efficacy α4β2* (first number, [3H]DA release) (α4β2*-nAChR [6]): -100 ± 9%
Reduction of antagonist potency at α4β2* relative to Compound 5 (α4β2*-nAChR [6]): 16 fold
Ki (α4β2*-nAChR [6]; [12]): 490 nM
Efficacy α6β2* (α6β2*-nAChR [8]): -100 ± 18%
Reduction of antagonist potency at α6β2* relative to Compound 5 (α6β2*-nAChR [8]): 2 fold
Ki (α6β2*-nAChR [8]; read-out: Ki α6β2* (marked #)): 910 ± 656 nM
Efficacy α3β4* (α3β4*-nAChR): 8% and 8 ± 2%
Functional character at α3β4* (α3β4*-nAChR): partial agonists
EC50 (α3β4*-nAChR; read-out: EC50 α3β4*, activation, [3H]ACh release): 7000 ± 1000 nM
Efficacy α7 (hα7-nAChR): 31% and 31 ± 12%
EC50 (hα7-nAChR; peak current, GH4C1 cells): 4260 ± 730 nM

CN1[C@@H]2CC[C@H]1C=C(c1cncc(Br)c1)C2 [Compound 10, (1R,5S)-3-(5-bromopyridin-3-yl)-8-methyl-8-azabicyclo[3.2.1]oct-3-ene]
Physiological effect α4L9'Aβ2* (α4L9'A knock-in mice [1]; mouse, in vivo): elicited responses; also recorded: hypothermia (0.1)
Efficacy as % of Compound 8, α-CtxMII-resistant DA release (α4β2*-nAChR [6]): 25%
Increase in potency relative to Compound 8, α-CtxMII-resistant DA release (α4β2*-nAChR [6]): 83 fold
EC50 (α4β2*-nAChR [6]; [10]): 178 ± 94 nM
EC50 (α4β2*-nAChR [6]; EC50 α-CtxMII-resistant (α4β2*) [3H]-DA release): 180 nM
Physiological effect α6L9'Sβ2* (α6L9'S transgenic mice [7]): elicited responses; also recorded: locomotor activation; also recorded: activation (0.1)
EC50 (α6β2*-nAChR [8]; [11]): 117 ± 69 nM
EC50 (α6β2*-nAChR [8]; EC50 α-CtxMII-sensitive (α6β2*) [3H]-DA release): 120 nM
Functional character at α6β2* (α6β2*-nAChR [8]; α-CtxMII-sensitive DA release): partial agonist
EC50 (α3β4*-nAChR; [14]): 7200 ± 600 nM
Functional character at α3β4* (α3β4*-nAChR): partial agonists
Ki (α7-nAChR): 128 ± 36 nM
Emax (hα7-nAChR): 55 ± 9%

c1cnc2cc3c(cc2n1)[C@@H]1CNC[C@H]3C1 [Varenicline, reference compound]
Physiological effect α4L9'Aβ2* (α4L9'A knock-in mice [1]; [9]): hypothermia (0.001)
EC50 (α4β2*-nAChR [6]): 50 ± 12 nM
Physiological effect α6L9'Sβ2* (α6L9'S transgenic mice [7]): activation (0.1)
Physiological effect α6L9'Sβ2* (α6L9'S transgenic mice [7]; listed as varenicline): locomotor hyperactivity
EC50 (α6β2*-nAChR [8]): 77 ± 169 nM
EC50 (α3β4*-nAChR): 12000 ± 300 nM
Ki (α7-nAChR): 42 ± 5 nM
Emax (hα7-nAChR): 78 ± 24%
